From ChEMBL document CHEMBL1782041, “Novel non-peptide beta-secretase inhibitors derived from structure-based virtual screening and bioassay” (Bioorg Med Chem Lett, 2009)
pIC50: −log10 of the molar value. Peptide text beside a SMILES is read from it.

Experiments:
Beta-secretase 1 [1] = target: T1, Beta-secretase 1 (Homo sapiens, UniProt P56817); test: Inhibition of BACE1 using peptide substrate Rh-EVNLDAEFKQuencher at 100 uM by fluorescence resonance energy transfer (FRET) assay
Beta-secretase 1 [2] = target: T1, Beta-secretase 1; test: Inhibition of BACE1 using peptide substrate Rh-EVNLDAEFKQuencher by fluorescence resonance energy transfer (FRET) assay

T1 sequence (P56817 whole entry): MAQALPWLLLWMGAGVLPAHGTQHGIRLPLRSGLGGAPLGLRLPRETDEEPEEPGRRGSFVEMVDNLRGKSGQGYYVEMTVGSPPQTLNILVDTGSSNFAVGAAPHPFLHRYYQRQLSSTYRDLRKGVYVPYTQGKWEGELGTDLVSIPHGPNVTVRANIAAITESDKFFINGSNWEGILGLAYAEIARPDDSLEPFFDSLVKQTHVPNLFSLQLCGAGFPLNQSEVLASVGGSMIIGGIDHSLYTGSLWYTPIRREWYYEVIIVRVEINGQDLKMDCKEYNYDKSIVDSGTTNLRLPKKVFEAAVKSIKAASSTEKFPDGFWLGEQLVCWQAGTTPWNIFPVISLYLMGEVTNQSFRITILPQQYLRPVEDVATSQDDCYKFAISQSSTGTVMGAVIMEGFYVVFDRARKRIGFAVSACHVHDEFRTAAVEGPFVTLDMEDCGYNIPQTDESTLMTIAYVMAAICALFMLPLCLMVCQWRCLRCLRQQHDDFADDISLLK

CC[C@H](C)[C@H](NC(=O)[C@H](CCC(=O)O)NC(=O)[C@H](CCC(=O)O)NC(=O)[C@@H](NC(=O)[C@@H](N)CCCCN)[C@@H](C)O)C(=O)N[C@@H](CO)C(=O)N[C@@H](CCC(=O)O)C(=O)N[C@H](C(=O)N[C@@H](CC(N)=O)C(=O)N[C@@H](CC(C)C)[C@@H](O)CC(=O)N[C@H](C(=O)N[C@@H](C)C(=O)N[C@@H](CCC(=O)O)C(=O)N[C@@H](Cc1ccccc1)C(=O)O)C(C)C)C(C)C (HELM PEPTIDE1{K.T.E.E.I.S.E.V.N.[CC(C)C[C@H](N[*:1])[C@@H](O)CC(=O)[*:2]].V.A.E.F}$$$$V2.0)
inhibition (Beta-secretase 1 [1]): 100% | pIC50 (Beta-secretase 1 [2]): 6.92

CCc1nnc(NC(=O)CSc2nc(-c3ccc(F)cc3)cc(-c3ccccc3)c2C#N)s1
inhibition (Beta-secretase 1 [1]): 80% | pIC50 (Beta-secretase 1 [2]): 4.30

Cc1nc(NC(=NC(=O)Nc2ccccc2)NC(=O)Nc2ccccc2)nc2ccccc12
pIC50 (Beta-secretase 1 [2]): 5.52

O=C(CSc1nnc(Cc2c[nH]c3ccccc23)n1Cc1ccccc1)c1c[nH]c2ccccc12
inhibition (Beta-secretase 1 [1]): 75% | pIC50 (Beta-secretase 1 [2]): 4.00

N#Cc1c(-c2ccc(F)cc2)cc(-c2ccccc2)nc1SCC(=O)NC12CC3CC(CC(C3)C1)C2
inhibition (Beta-secretase 1 [1]): 45% | pIC50 (Beta-secretase 1 [2]): 3.93

O=S(=O)(c1ccc(Br)cc1)N(c1cnn(Cc2ccc(Cl)c(Cl)c2)c1)S(=O)(=O)c1ccc(Br)cc1
inhibition (Beta-secretase 1 [1]): 50% | pIC50 (Beta-secretase 1 [2]): 4.05

Cc1nn(-c2ccccc2)c(Cl)c1C1Nc2ccccc2-c2nnc(SCc3ccccc3)nc2O1 (configuration not stated)
inhibition (Beta-secretase 1 [1]): 48% | pIC50 (Beta-secretase 1 [2]): 4.00

N#Cc1c(NC(=O)COC(=O)CSc2nc(-c3ccccc3)cc(-c3ccccc3)n2)sc2c1CCCC2
inhibition (Beta-secretase 1 [1]): 75% | pIC50 (Beta-secretase 1 [2]): 4.46

Cc1ccc(NC(=O)Cc2nnc(SCC(=O)Nc3nc(-c4ccccc4)cs3)n2C)cc1
inhibition (Beta-secretase 1 [1]): 83% | pIC50 (Beta-secretase 1 [2]): 4.68

O=C(CSc1nc2ccc(Nc3nc(N4CCCCC4)nc(N4CCCCC4)n3)cc2s1)Nc1ccccc1F
inhibition (Beta-secretase 1 [1]): 90% | pIC50 (Beta-secretase 1 [2]): 4.99

Cc1cc(C)nc(N/C(=N\C(=O)N2c3ccccc3Sc3ccccc32)Nc2cccc([N+](=O)[O-])c2)n1
inhibition (Beta-secretase 1 [1]): 80% | pIC50 (Beta-secretase 1 [2]): 4.54

COc1ccc(CCNC(=O)CSc2nc3ccc(Nc4nc(N5CCCCC5)nc(N5CCCCC5)n4)cc3s2)cc1OC
inhibition (Beta-secretase 1 [1]): 80% | pIC50 (Beta-secretase 1 [2]): 5.55

N#Cc1c(-c2ccccc2)cc(-c2ccccc2)nc1SCC(=O)Nc1cccc([N+](=O)[O-])c1
inhibition (Beta-secretase 1 [1]): 100% | pIC50 (Beta-secretase 1 [2]): 4.70

Cc1nc(N/C(=N\C(=O)Nc2ccccc2)NC(=O)Nc2ccccc2)nc2ccccc12
inhibition (Beta-secretase 1 [1]): 100%

N#Cc1c(NC(=O)C(F)(F)C(F)(F)C(F)(F)C(F)(F)C(=O)Nc2sc3c(c2C#N)CCCCCC3)sc2c1CCCCCC2
inhibition (Beta-secretase 1 [1]): 87% | pIC50 (Beta-secretase 1 [2]): 4.91

COc1ccc(-c2cc(-c3ccc(Cl)cc3)c(C#N)c(SCC(=O)N(c3ccccc3)c3ccc4ccccc4c3)n2)cc1
inhibition (Beta-secretase 1 [1]): 68% | pIC50 (Beta-secretase 1 [2]): 4.30

O=C(Nc1ncc(Cc2cccc(Cl)c2Cl)s1)c1ccc(CSc2nnc(-c3ccncc3)n2-c2ccccc2)cc1
inhibition (Beta-secretase 1 [1]): 78% | pIC50 (Beta-secretase 1 [2]): < 4.00
